Results as given in the NIST ThermoML archive (doi:10.1021/je034177v).

Assay: molar heat capacity at constant pressure; xn = mol fraction of the nth substance listed
Details: 101 kPa, Liquid, Small sample (50 mg) DSC

ClCCCCCCl [1,5-dichloropentane] + CCCCCCCCCCCC
molar heat capacity at constant pressure [J/K/mol]
Details | 283.15 K | 288.15 K | 293.15 K | 298.15 K | 303.15 K | 308.15 K | 313.15 K | 318.15 K | 323.15 K
x1 = 0.05237 | 359.49 | 361.46 | 363.6 | 365.89 | 368.28 | 370.79 | 373.41 | 376.07 | 378.83
x1 = 0.1014 | 351.13 | 353.16 | 355.31 | 357.53 | 359.81 | 362.28 | 364.84 | 367.48 | 370.16
x1 = 0.2008 | 334.84 | 336.79 | 338.81 | 340.93 | 343.08 | 345.47 | 347.87 | 350.35 | 352.88
x1 = 0.3039 | 318.47 | 320.33 | 322.17 | 324.17 | 326.18 | 328.38 | 330.63 | 332.93 | 335.27
x1 = 0.3945 | 304.32 | 305.98 | 307.85 | 309.6 | 311.52 | 313.55 | 315.68 | 317.86 | 320.07
x1 = 0.4983 | 288.13 | 289.64 | 291.34 | 293.02 | 294.78 | 296.69 | 298.58 | 300.38 | 302.59
x1 = 0.6014 | 271.74 | 273.2 | 274.79 | 276.35 | 277.97 | 279.71 | 281.49 | 283.32 | 285.18
x1 = 0.6987 | 256.4 | 257.78 | 259.23 | 260.76 | 262.21 | 263.83 | 265.47 | 267.13 | 268.85
x1 = 0.7975 | 240.83 | 242.08 | 243.45 | 244.78 | 246.18 | 247.69 | 249.17 | 250.73 | 252.27
x1 = 0.9021 | 224.47 | 225.7 | 226.92 | 228.16 | 229.39 | 230.74 | 232.08 | 233.47 | 234.85
x1 = 0.9497 | 217.25 | 218.41 | 219.54 | 220.73 | 221.9 | 223.14 | 224.4 | 225.7 | 227.02
x1 = 1 | 209.65 | 210.73 | 211.89 | 212.94 | 214.06 | 215.21 | 216.38 | 217.56 | 218.76

ClCCCCCCCl [1,6-dichlorohexane] + CCCCCCCCCCCC
molar heat capacity at constant pressure [J/K/mol]
Details | 283.15 K | 288.15 K | 293.15 K | 298.15 K | 303.15 K | 308.15 K | 313.15 K | 318.15 K | 323.15 K
x1 = 0.0498 | 361.24 | 363.25 | 365.49 | 367.75 | 370.17 | 372.73 | 375.36 | 378.07 | 380.85
x1 = 0.1003 | 354.21 | 356.2 | 358.37 | 360.64 | 363.07 | 365.53 | 368.13 | 370.69 | 373.37
x1 = 0.1497 | 347.4 | 349.35 | 351.58 | 353.74 | 356.06 | 358.52 | 361.02 | 363.62 | 366.28
x1 = 0.2527 | 333.57 | 335.52 | 337.63 | 339.74 | 341.93 | 344.27 | 346.63 | 349.13 | 351.62
x1 = 0.4017 | 314.16 | 315.92 | 317.89 | 319.79 | 321.84 | 323.95 | 326.16 | 328.4 | 330.71
x1 = 0.502 | 301.12 | 302.83 | 304.61 | 306.46 | 308.39 | 310.38 | 312.43 | 314.57 | 316.72
x1 = 0.6 | 288.34 | 289.93 | 291.62 | 293.38 | 295.19 | 297.07 | 299.01 | 300.97 | 303.01
x1 = 0.7011 | 275.07 | 276.6 | 278.22 | 279.86 | 281.55 | 283.34 | 285.15 | 287 | 288.89
x1 = 0.7986 | 262.36 | 263.83 | 265.4 | 266.9 | 268.5 | 270.16 | 271.87 | 273.6 | 275.38
x1 = 0.8998 | 249.37 | 250.76 | 252.22 | 253.67 | 255.12 | 256.63 | 258.18 | 259.77 | 261.42
x1 = 0.9493 | 242.86 | 244.24 | 245.67 | 247.09 | 248.51 | 249.99 | 251.5 | 253.03 | 254.57
x1 = 0.9691 | 240.39 | 241.75 | 243.14 | 244.52 | 245.9 | 247.38 | 248.85 | 250.37 | 251.9
x1 = 1 | 236.59 | 237.9 | 239.26 | 240.6 | 241.94 | 243.37 | 244.81 | 246.28 | 247.76
